Results taken from patent US11498920B2, “4-(1H-imidazol-5-yl)-1H-pyrrolo[2, 3-b] pyridines for use in the treatment of leukaemias, lymphomas and solid tumors” (MASARYKOVA UNIVERZITA, priority 2018, dated 2022).

What was measured:
primary CLL cells = experiment: Cytotoxicity, TMRE flow cytometry viability, primary CLL cells (Example II.1); type: cell-based; conditions: Homo sapiens, CLL cell, 6 hours, TMRE positive cells normalized to control, ratio to PF670462, <1 = higher cytotoxicity than PF670462, read-out: Viability of cells, Compound of formula I (100 μM), relative to PF670462 (100 μM), CLL primary cells
Protocol: (§1) The leukemia and lymphoma-derived cell lines [MEC-1 cell line (derived from chronic lymphocytic leukemia—CLL), Nalm-16 (acute lymphocytic leukemia—ALL), K562 (chronic myeloid leukemia—CML), HL-60 (acute myeloid leukemia—AML), Maver-1 and Mino (mantle cell lymphoma—MCL), BL-41 (Burkitt lymphoma—BL), WSU-NHL (follicular lymphoma—FL), SUDHL (diffuse large B-cell lymphoma—DLBCL)], primary CLL cells and nonmalignant control primary cells were cultured in suspension in flasks under the following conditions: RPMI 1640 medium (Hyclone) supplemented with 10% fetal bovine serum (FBS, Gibco) and 1% penicillin/streptomycin (Life Technologies), 37° C., 5% CO2 and 95% relative humidity, with optimal culture cell density 5×10^6 cells/mL in case of primary cells and 0.5-1×10^6 cells/mL in case of cell lines. The adherent cell lines [A375 (derived from malignant melanoma), MDA-MB-231 and MCF-7 (breast cancer), MIA-PA-CA and PANC1 (pancreatic cancer), PC3 (prostate cancer), OVCAR4 (ovarian cancer) and HEPG2 (hepatocellular carcinoma)] were cultured on plates under the same conditions using RPMI1640 or DMEM medium (Gibco) according to instructions provided by the distributor (DSMZ/ATCC).
(§2) Cytotoxicity of compounds of formula I was tested in two models representative for leukemia (primary CLL cells) and lymphoma (Maver-1 cells). The primary CLL cells and Maver-1 cells (MCL-derived) were incubated with inhibitors at 100 μM concentration or corresponding amount of solvent (DMSO, Sigma Aldrich) as 0.1×10^6 cells/200 μl per well in a 96-well plate. Experiments were performed in technical duplicates. Viability of cells was assessed after 6 hours in case of primary CLL cells and after 24 hours in case of Maver-1 cells.
(§3) Apoptosis-induced reduction of mitochondrial potential is detected as lower TMRE fluorescence. […] Relative values are presented, showing ratio to the effect of PF670462 (as the closest prior art). Relative value <1 indicates a higher cytotoxicity than PF670462.

[1] = test system: Maver-1 cells (mantle cell lymphoma); experiment: Cytotoxicity, TMRE flow cytometry viability, Maver-1 cells (Example II.1); type: cell-based; conditions: Homo sapiens, Maver1, 24 hours, TMRE positive cells normalized to control, ratio to PF670462, <1 = higher cytotoxicity than PF670462, read-out: Viability of cells, Compound of formula I (100 μM), relative to PF670462 (100 μM), Maver-1 cells (mantle cell lymphoma)
Protocol: as §1, §2, §3

Compound | viability at 100 µM (primary CLL cells) [%] | viability at 100 µM [1] [%]
Fc1ccc(-c2ncn(C3CCC(F)(F)CC3)c2-c2ccnc3[nH]ccc23)cc1 [Preparative Example 35, 4-(1-(4,4-difluorocyclohexyl)-4-(4-fluorophenyl)-1H-imidazol-5-yl)-1H-pyrrolo[2,3-b]pyridine] | 60 | 44
Fc1ccc(-c2ncn([C@H]3CC[C@H](C(F)(F)F)CC3)c2-c2ccnc3[nH]ccc23)cc1 [Preparative Example 36] | 68 | 1
c1cc(-c2c(-c3ccsc3)ncn2C2CCCCC2)c2cc[nH]c2n1 [Preparative Example 42, 4-(1-cyclohexyl-4-(thiophen-3-yl)-1H-imidazol-5-yl)-1H-pyrrolo[2,3-b]pyridine] | 76 | 12
Fc1ccc(-c2ncn(-c3cccnc3)c2-c2ccnc3[nH]ccc23)cc1 [Preparative Example 50, 4-(4-(4-fluorophenyl)-1-(pyridin-3-yl)-1H-imidazol-5-yl)-1H-pyrrolo[2,3-b]pyridine] | 63 | 48
OCc1cc2c(-c3c(-c4ccc(F)cc4)ncn3C3CCCCC3)ccnc2[nH]1 [Preparative Example 56, (4-(1-cyclohexyl-4-(4-fluorophenyl)-1H-imidazol-5-yl)-1H-pyrrolo[2,3-b]pyridin-2-yl)methanol] | 67 | 79
COCc1cc2c(-c3c(-c4ccc(F)cc4)ncn3C3CCCCC3)ccnc2[nH]1 [Preparative Example 60, 4-(1-cyclohexyl-4-(4-fluorophenyl)-1H-imidazol-5-yl)-2-(methoxymethyl)-1H-pyrrolo[2,3-b]pyridine] | 93 | 84
CS(=O)(=O)N1CCC(n2cnc(-c3ccc(F)cc3)c2-c2ccnc3[nH]ccc23)CC1 [Preparative Example 69] | 84 | 85
CCOC(=O)N1CCC(n2cnc(-c3ccc(F)cc3)c2-c2ccnc3[nH]ccc23)CC1 [Preparative Example 70, Ethyl 4-(4-(4-fluorophenyl)-5-(1H-pyrrolo[2,3-b]pyridin-4-yl)-1H-imidazol-1-yl)piperidine-1-carboxylate] | 72 | 11
CNC(=O)N1CCC(n2cnc(-c3ccc(F)cc3)c2-c2ccnc3[nH]ccc23)CC1 [Preparative Example 71, 4-(4-(4-fluorophenyl)-5-(1H-pyrrolo[2,3-b]pyridin-4-yl)-1H-imidazol-1-yl)-N-methylpiperidine-1-carboxamide] | 87 | 87
CC(=O)N[C@H]1CC[C@@H](n2cnc(-c3ccc(F)cc3)c2-c2ccnc3[nH]ccc23)CC1 [Preparative Example 75, N-(cis-4-(4-(4-fluorophenyl)-5-(1H-pyrrolo[2,3-b]pyridin-4-yl)-1H-imidazol-1-yl)cyclohexyl)acetamide] | 83 | 66
Fc1ccc(-c2ncn(CCCOC(F)(F)F)c2-c2ccnc3[nH]ccc23)cc1 [Preparative Example 80] | 49 | 42
Fc1ccc(-c2ncn(Cc3cccs3)c2-c2ccnc3[nH]ccc23)cc1 [Preparative Example 84, 4-(4-(4-fluorophenyl)-1-(thiophen-2-ylmethyl)-1H-imidazol-5-yl)-1H-pyrrolo[2,3-b]pyridine] | 48 | 8
Fc1ccc(-c2ncn(Cc3ccc(OC(F)(F)F)cc3)c2-c2ccnc3[nH]ccc23)cc1 [Preparative Example 85] | 1 | 4
Fc1ccc(-c2ncn(CCc3ccccc3)c2-c2ccnc3[nH]ccc23)cc1 [Preparative Example 87, 4-(4-(4-fluorophenyl)-1-phenethyl-1H-imidazol-5-yl)-1H-pyrrolo[2,3-b]pyridine] | 10 | 3
Fc1ccc(-c2ncn(CC3CCCCC3)c2-c2ccnc3[nH]ccc23)cc1 [Preparative Example 88, 4-(1-(cyclohexylmethyl)-4-(4-fluorophenyl)-1H-imidazol-5-yl)-1H-pyrrolo[2,3-b]pyridine] | 15 | 5
CN(C)[C@H]1C[C@@H](Cn2cnc(-c3ccc(F)cc3)c2-c2ccnc3[nH]ccc23)C1 [Preparative Example 89] | 59 | 70
CN(C)[C@H]1CC[C@@H](n2cnc(-c3ccc(F)cc3)c2-c2ccnc3[nH]ccc23)CC1 [Preparative Example 90] | 23 | 52
CN(C)CCS(=O)(=O)N[C@H]1CC[C@@H](n2cnc(-c3ccc(F)cc3)c2-c2ccnc3[nH]ccc23)CC1 [Preparative Example 98, 2-(dimethylamino)-N-((1R,4s)-4-(4-(4-fluorophenyl)-5-(1H-pyrrolo[2,3-b]pyridin-4-yl)-1H-imidazol-1-yl)cyclohexyl)ethane-1-sulfonamide] | 16 | 3
CN(C)CCCS(=O)(=O)N[C@H]1CC[C@@H](n2cnc(-c3ccc(F)cc3)c2-c2ccnc3[nH]ccc23)CC1 [Preparative Example 100, 3-(dimethylamino)-N-((1R,4s)-4-(4-(4-fluorophenyl)-5-(1H-pyrrolo[2,3-b]pyridin-4-yl)-1H-imidazol-1-yl)cyclohexyl)propane-1-sulfonamide] | 1 | 0
Cc1nc(Cn2cnc(-c3ccc(F)cc3)c2-c2ccnc3[nH]ccc23)cs1 [Preparative Example 108, 4-((4-(4-fluorophenyl)-5-(1H-pyrrolo[2,3-b]pyridin-4-yl)-1H-imidazol-1-yl)methyl)-2-methylthiazole] | 74 | 82
Fc1ccc(-c2ncn(Cc3cc[nH]n3)c2-c2ccnc3[nH]ccc23)cc1 [Preparative Example 109, 4-(1-((1H-pyrazol-3-yl)methyl)-4-(4-fluorophenyl)-1H-imidazol-5-yl)-1H-pyrrolo[2,3-b]pyridine] | 87 | 31
Fc1ccc(-c2ncn(CC3CNCCO3)c2-c2ccnc3[nH]ccc23)cc1 (centres unmarked) [Preparative Example 114, 2-((4-(4-fluorophenyl)-5-(1H-pyrrolo[2,3-b]pyridin-4-yl)-1H-imidazol-1-yl)methyl)morpholine] | 78 | 27
CN(C)[C@H]1C[C@H](n2cnc(-c3ccc(F)cc3)c2-c2ccnc3[nH]ccc23)C1 [Preparative Example 124, (1S,3r)-3-(4-(4-fluorophenyl)-5-(1H-pyrrolo[2,3-b]pyridin-4-yl)-1H-imidazol-1-yl)-N,N-dimethylcyclobutan-1-amine] | 55 | 53
CN(C)[C@H]1CC[C@H](n2cnc(-c3ccc(F)cc3)c2-c2ccnc3[nH]ccc23)CC1 [Preparative Example 125, (1S,4r)-4-(4-(4-fluorophenyl)-5-(1H-pyrrolo[2,3-b]pyridin-4-yl)-1H-imidazol-1-yl)-N,N-dimethylcyclohexan-1-amine] | 28 | 26
CN1CCC(Cn2cnc(-c3ccc(F)cc3)c2-c2ccnc3[nH]ccc23)C1 (centres unmarked) [Preparative Example 129, 4-(4-(4-fluorophenyl)-1-((1-methylpyrrolidin-3-yl)methyl)-1H-imidazol-5-yl)-1H-pyrrolo[2,3-b]pyridine] | 78 | 86
Fc1ccc(-c2ncn(C3CCCCC3)c2-c2ccnc3[nH]cc(Br)c23)cc1 [Preparative Example 134, 3-bromo-4-(1-cyclohexyl-4-(4-fluorophenyl)-1H-imidazol-5-yl)-1H-pyrrolo[2,3-b]pyridine] | 22 | 1
Fc1ccc(-c2nc(Br)n(C3CCCCC3)c2-c2ccnc3[nH]ccc23)cc1 [Preparative Example 135, 4-(2-bromo-1-cyclohexyl-4-(4-fluorophenyl)-1H-imidazol-5-yl)-1H-pyrrolo[2,3-b]pyridine] | 9 | 0
CSc1nc(-c2ccc(F)cc2)c(-c2ccnc3[nH]ccc23)n1C1CCCCC1 [Preparative Example 136, 4-(1-cyclohexyl-4-(4-fluorophenyl)-2-(methylthio)-1H-imidazol-5-yl)-1H-pyrrolo[2,3-b]pyridine] | 47 | 0
